Data from patent publication US7749698B2, “p53 wild-type as biomarker for the treatment with mTOR inhibitors in combination with a cytotoxic agent” (Novartis AG, priority 2004, dated 2010).

Assays:
PC3M = assay: YO-PRO cell death/cytotoxicity assay, cisplatin combination; format: cell-based, human; details: p53 mutated/deficient, 20 nM with cisplatin, 30 hours
Experimental: (§1) p53 (TP53) wild-type human lung adenocarcinoma A549 cells are seeded at a density of 5×10^3 cells/100 μl per well in 96-well plates and incubated for 24 hours at 37° C. and 5% CO2. Cells are incubated with suboptimal concentrations of cisplatin (e.g. 3 to 10 μg/ml) either in combination with 20 nM 40-O-(2-hydroxyethyl) rapamycin or with the vehicle-control DMSO for an additional 24 hours. The YO-PRO® assay is performed as above to determine cell death or cytotoxicity and, after cell lysis, the relative cell proliferation. […] In the latter case, incubation with compounds is for 30 hours.
(§2) This procedure is repeated however with the use of p53 (TP53) mutated/deficient tumor cell lines, e.g. PC3M (seeded at a density of 3×10^3 cells/100 μl) or DU145 (seeded at a density of 5×10^3 cells/100 μl:HTB-81; American Type Culture Collection). The incubation with compounds in this case is 22 hours for DU145 or 30 hours for PC3M.

[1] = system: PC3M human prostate carcinoma cells; assay: YO-PRO cell death/cytotoxicity assay, gemcitabine combination; format: cell-based; details: p53 mutated/deficient, 20 nM with gemcitabine
Experimental: (§3) p53 (TP53) wild-type human adenocarcinoma A549 (CCL-185) tumor cells (American Type Culture Collection, Rockville, Md., USA) are seeded at a density of 2×10^3 cells/100 μl per well in 96-well plates and incubated for 24 hours at 37° C. and 5% CO2. Cells are incubated with suboptimal concentrations of gemcitabine (e.g. 5 to 17.5 nM) either in combination with 20 nM 40-O-(2-hydroxyethyl) rapamycin or with the vehicle-control DMSO for an additional 72 hours. YO-PRO dye (YO-PRO^R-1 iodide [491/509], cat #Y3603, Molecular Probes) is added to the cells and a Cytofluor II Fluorescence plate reader is used to determine cell death or cytotoxicity and, after cell lysis, the relative cell proliferation.
(§4) This procedure is repeated however with the use of p53 (TP53) mutated/deficient tumor cell lines, e.g. PC3M human prostate carcinoma cells (seeded at a density of 0.8×10^3 cells/100 μl) or MDA-MB231 human breast carcinoma cells (seeded at a density of 2×10^3 cells/100 μl; HTB-26; American Type Culture Collection).

[2] = system: MDA-MB231 human breast carcinoma cells; assay: as above; format: cell-based; details: MDA-MB231, p53 mutated/deficient; 20 nM with gemcitabine
Experimental: as §3, §4

[3] = system: p53 (TP53) wild-type human adenocarcinoma A549 (CCL-185) tumor cells; assay: as above; format: cell-based; details: 20 nM with gemcitabine 5 to 17.5 nM, 72 hours, p<0.05, ANOVA with Tukey test
Experimental: as §3

A549 cells [4] = assay: PARP cleavage immunoblot, gemcitabine combination; format: cell-based, human; details: 20 nM with gemcitabine 5 to 12.5 nM, 72 hours, compared to gemcitabine or the mTOR inhibitor alone
Experimental: A549 cells are seeded at a density of 0.1×10^6 cells/10 ml per 10 cm plates and incubated for 24 hours at 37° C. and 5% CO2. Cells are incubated with suboptimal concentrations of gemcitabine (e.g. 5 to 12.5 nM) either in combination with 20 nM 40-O-(2-hydroxyethyl) rapamycin or with the vehicle-control DMSO for an additional 72 hours. Cell extracts corresponding to 50 μg total protein are resolved by 8% SDS-PAGE electrophoresis and immunoblot analysis is performed using rabbit polyclonal antibodies raised against Poly (ADP-Ribose) Polymerase (PARP) (Cell Signalling Technology catalogue #9542). […] This confirms the above results that, in the p53 (TP53) wild-type A549 cells, the presence of the mTOR inhibitor results in higher levels of cell death at suboptimal gemcitabine concentrations.

DU145 = assay: YO-PRO cell death/cytotoxicity assay, cisplatin combination; format: cell-based; details: DU145, p53 mutated/deficient; 20 nM with cisplatin, 22 hours
Experimental: as §1, §2

[5] = system: p53 (TP53) wild-type human lung adenocarcinoma A549 cells; assay: as above; format: cell-based
Experimental: as §1

[6] = system: p53 (TP53) wild-type MCF7 cells; assay: p21 and Bax immunoblot, cisplatin with or without mTOR inhibitor; format: cell-based, human; details: for Bax protein expression: either agent alone or in combination
Experimental: (§5) p53 (TP53) wild-type A549 and MCF7 cells are seeded at a density of 0.3×10^6 and 0.4×10^6 cells/4 ml per 6 cm plates, respectively, and incubated for 24 hours at 37° C. and 5% CO2. Cells are incubated with suboptimal concentrations of cisplatin (e.g. 0.5 to 4 μg/ml) either in combination with 20 nM 40-O-(2-hydroxyethyl) rapamycin or with the vehicle-control DMSO for an additional 24 hours and 30 hours, respectively. Cell extracts corresponding to 30 μg total protein are resolved on 15% SDS-PAGE electrophoresis and immunoblot analysis is performed using mouse monoclonal antibodies raised against p21 (Oncogene Research Products, Clone EA10, catalogue #OP64). […] Strikingly, the presence of the mTOR inhibitor, e.g. 40-O-(2-hydroxyethyl) rapamycin, attenuates cisplatin-induced upregulation of p21 protein expression. In contrast, Bax protein expression, a p53-regulated pro-apoptotic protein, is unaffected by either agent alone or in combination. In this assay cytotoxic-induced p21 protein expression is inhibited by the presence of the mTOR inhibitor. This provides an explanation for the enhanced cell killing/apoptotic response observed with cisplatin and mTOR inhibitor combinations.

[7] = system: p53 (TP53) wild-type A549 cells; assay: as above; format: cell-based, human; details: for Bax protein expression: either agent alone or in combination
Experimental: as §5

A549 cells [8] = assay: PARP cleavage immunoblot, cisplatin combination; format: cell-based, human; details: 20 nM with cisplatin 0.5 to 4 μg/ml, 24 hours, compared to cisplatin or the mTOR inhibitor alone
Experimental: A549 cells are seeded at a density of 0.1×10^6 cells/10 ml per 10 cm plates and incubated for 24 hours at 37° C. and 5% CO2. Cells are incubated with suboptimal concentrations of cisplatin (e.g. 0.5 to 4 μg/ml) either in combination with 20 nM 40-O-(2-hydroxyethyl) rapamycin or with the vehicle-control DMSO for an additional 24 hours. Cell extracts corresponding to 50 μg total protein are resolved on 8% SDS-PAGE electrophoresis and immunoblot analysis is performed using rabbit polyclonal antibodies raised against Poly (ADP-Ribose) Polymerase (PARP) and p53. […] This confirms the above results that, in the p53 (TP53) wild-type A549 cells, the presence of the mTOR inhibitor results in higher levels of cell death at suboptimal cisplatin concentrations.

[9] = system: p53 (TP53) wild-type A549 cells; assay: p53 siRNA transfection, cisplatin treatment, p53/p21/PARP immunoblot; format: cell-based, human; details: A549 untransfected or LacZ siRNA control transfected
Experimental: p53 (TP53) wild-type A549 cells are seeded at a density of 0.1×10^6 cells/5 ml per 6 cm plates and incubated for 24 hours at 37° C. and 5% CO2. Cells are left untransfected or transiently transfected with 100 nM siRNA targeting either human p53 (Accession number: NM000546; target sequence: 5′-GCA TCT TAT CCG AGT GGA A-3′) or LacZ (Accession number: M55068; target sequence: 5′-GCGGCTGCCGGAATTTACCTT-3′) control siRNA, using Oligofectamine (Invitrogen, Cat # 12252-011). After 30 hours incubation, cells are incubated with increasing concentrations of cisplatin (e.g. 0.5 to 6 μg/ml) for an additional 24 hours. Cell extracts corresponding to 30 μg (p21) and 50 μg (p53 and PARP) total protein are resolved on 15% (p21) and 10% (p53 and PARP) SDS-PAGE electrophoresis, and immunoblot analysis is performed using mouse monoclonal and rabbit polyclonal antibodies raised against p21 and p53/PARP, respectively. […] The same effects on p53 expression, p21 expression and PARP cleavage are also observed with two other siRNA's targeting human p53 (target sequences: 5′-GGA AGA CTC CAG TGG TAA T-3′ and 5′-GAT ATT GAA CAA TGG TTC A-3′).

[10] = system: p53 (TP53) wild-type A549 cells; assay: p21 siRNA transfection, cisplatin treatment, p21/PARP immunoblot; format: cell-based, human; details: A549 untransfected or LacZ siRNA control transfected; cisplatin 1 to 2 μg/ml, 24 hours
Experimental: p53 (TP53) wild-type A549 cells are seeded at a density of 0.1×10^6 cells/5 ml per 6 cm plates and incubated for 24 hours at 37° C. and 5% CO2. Cells are left untransfected or transiently transfected with 100 nM siRNA targeting either p21 (Accession number: NM000389; target sequence: 5′-GTG GAC AGC GAG CAG CTG A-3′) or LacZ (as above) control siRNA, using Oligofectamine (Invitrogen, Cat # 12252-011). After 30 hours incubation, cells are incubated with suboptimal concentrations of cisplatin (e.g. 1 to 2 μg/ml) for an additional 24 hours. Cell extracts corresponding to 30 μg (p21) and 50 μg (PARP) total protein are resolved on 15 and 10% SDS-PAGE electrophoresis, respectively, and immunoblot analysis is performed using mouse monoclonal and rabbit polyclonal antibodies raised against p21 and PARP, respectively.

[11] = cisplatin 0.5 to 6 μg/ml, 24 hours

Row | Compound | potentiation of cell death (PC3M) | potentiation of cell death [1] | potentiation of cell death [2] | potentiation of the cell killing effect of suboptimal concentrations of gemcitabine [3] | PARP cleavage (a marker of apoptosis) at suboptimal gemcitabine concentrations (A549 cells [4]) | potentiation of cell death (DU145) | potentiation of the cell killing effect of suboptimal concentrations of cisplatin ([5]; 20 nM with cisplatin 3 to 10 μg/ml, 24 hours, p<0.05, ANOVA with Tukey test) | interaction between RAD001 and cisplatin (two-way ANOVA) ([5]; p<0.001) | cisplatin-induced upregulation of p21 protein expression ([6]; 20 nM with cisplatin 0.5 to 4 μg/ml, 30 hours) | Bax protein expression [6] | cisplatin-induced upregulation of p21 protein expression ([7]; 20 nM with cisplatin 0.5 to 4 μg/ml, 24 hours) | Bax protein expression [7] | PARP cleavage (a marker of apoptosis) at suboptimal cisplatin concentrations (A549 cells [8]) | PARP cleavage (a marker of apoptosis) ([9]; at higher cisplatin concentrations (2 to 6 μg/ml)) | p21 protein expression [9, 11] | p53 protein expression [9, 11] | PARP cleavage (a marker of apoptosis) [10] | p21 protein expression [10] | p21 protein expression ([6]; cisplatin alone 0.5 to 4 μg/ml, 30 hours) | p21 protein expression ([7]; cisplatin alone 0.5 to 4 μg/ml, 24 hours)
1 | CO[C@H]1C[C@@H]2CC[C@@H](C)[C@@](O)(O2)C(=O)C(=O)N2CCCC[C@H]2C(=O)O[C@H]([C@H](C)C[C@@H]2CC[C@@H](OCCO)[C@H](OC)C2)CC(=O)[C@H](C)/C=C(\C)[C@@H](O)[C@@H](OC)C(=O)[C@H](C)C[C@H](C)/C=C/C=C/C=C/1C [40-O-(2-hydroxyethyl) rapamycin] | No striking or consistent potentiation | No striking or consistent potentiation | No striking or consistent potentiation | statistically significant potentiation | increased PARP cleavage | No striking or consistent potentiation | statistically significant potentiation | highly significant | attenuates | unaffected | attenuates | unaffected | increased PARP cleavage | – | – | – | – | – | – | –
2 | N.N.[Cl][Pt][Cl] [cisplatin] | – | – | – | – | – | – | – | – | – | unaffected | – | unaffected | – | evidence of PARP cleavage | induces p53 and p21 protein expression in a concentration-dependent manner | induces p53 and p21 protein expression in a concentration-dependent manner | little evidence of PARP cleavage | induces p21 protein expression in a concentration-dependent manner | induces increased p21 protein expression in a concentration-dependent manner | induces increased p21 protein expression in a concentration-dependent manner
